Converted amounts (≈) assume the structure as drawn. Like-named read-outs stand apart in the source and are kept apart here.
Tests used:
Assay in all cases: In vitro MIC, dilution of a liquid medium
Format in all cases: cell-based
[1] = system: Escherichia Coli Sensitive Tetracycline ATCC 9 637; conditions: read-out: minimum inhibiting concentration (MIC)
Procedure: (§1) The method used was a dilution of a liquid medium where a series of tubes received the same quantity of a sterile nutritive media and increasing doses of the test compounds were placed therein. Then each tube was seeded with a bacterial strain and was incubated for 24 or 48 hours at 37° C. in an oven. The increasing inhibition was determined by transillumination to determine the minimum inhibiting concentration (MIC in μg/ml) and the results are reported in the following Tables.

[2] = system: Staphylococcus aureus ATCC 6 538 Penicillin-Sensitive; conditions: 37° C., read-out: minimum inhibiting concentration (MIC)
Procedure: as §1

[3] = system: Proteus mirabilis (indol -) A 235; conditions: read-out: minimum inhibiting concentration (MIC)
Procedure: as §1

Providencia Du 48 = conditions: 37° C., read-out: minimum inhibiting concentration (MIC)
Procedure: as §1

[4] = system: Staphylococcus aureus exp. n° 54 146; conditions: 37° C., read-out: minimum inhibiting concentration (MIC)
Procedure: as §1

[5] = system: Escherichia Coli Resistant Tetracycline ATCC 11 303; conditions: read-out: minimum inhibiting concentration (MIC)
Procedure: as §1

[6] = system: Klebsiella pneumoniae Exp. 52 145; conditions: read-out: minimum inhibiting concentration (MIC)
Procedure: as §1

[7] = system: Bacillus subtilis ATCC 6 633; conditions: read-out: minimum inhibiting concentration (MIC)
Procedure: as §1

[8] = system: Staphylococcus aureus UC 1 128 Penicillin-resistant; conditions: 37° C., read-out: minimum inhibiting concentration (MIC)
Procedure: as §1

[9] = system: Streptococcus faecalis 5 432; conditions: Enterococcus faecalis, 5432, 37° C., read-out: minimum inhibiting concentration (MIC)
Procedure: as §1

[10] = system: Klebsiella pneumoniae 2 536 Resistant Gentamicine; conditions: read-out: minimum inhibiting concentration (MIC)
Procedure: as §1

[11] = system: Escherichia Coli Resistant Gentamicine, Tobramycine R 55 123 D; conditions: read-out: minimum inhibiting concentration (MIC)
Procedure: as §1

[12] = system: Serratia Resistant Gentamicine 2 532; conditions: 37° C., read-out: minimum inhibiting concentration (MIC)
Procedure: as §1

[13] = system: Streptococcus faecalis 99 F 74; conditions: Enterococcus faecalis, 99F74, 37° C., read-out: minimum inhibiting concentration (MIC)
Procedure: as §1

[14] = system: Proteus vulgaris (indol +) A 232; conditions: read-out: minimum inhibiting concentration (MIC)
Procedure: as §1

[15] = system: Streptococcus pyogenes A 561; conditions: read-out: minimum inhibiting concentration (MIC)
Procedure: as §1

[16] = system: Salmonella typhimurium 420; conditions: Salmonella enterica, read-out: minimum inhibiting concentration (MIC)
Procedure: as §1

Enterobacter cloacae 681 = conditions: 37° C., read-out: minimum inhibiting concentration (MIC)
Procedure: as §1

[17] = system: Escherichia Coli Exp. TO26 B6; conditions: 37° C., read-out: minimum inhibiting concentration (MIC)
Procedure: as §1

Row | SMILES | MIC ([2]; ATCC6, 24 H) [µg/mL] | MIC ([2]; ATCC6, 48 H) [µg/mL] | MIC (Providencia Du 48; DU48, 24 H) [µg/mL] | MIC (Providencia Du 48; DU48, 48 H) [µg/mL] | MIC ([4]; 24 H) [µg/mL] | MIC ([4]; 48 H) [µg/mL] | MIC ([5]; ATCC11, 24 H, 37° C.) [µg/mL] | MIC ([6]; EXP.52145, 48 H, 37° C.) [µg/mL] | MIC ([7]; ATCC6, 48 H, 37° C.) [µg/mL] | MIC ([8]; UC1, 24 H) [µg/mL] | MIC ([8]; UC1, 48 H) [µg/mL] | MIC ([9]; 24 H) [µg/mL] | MIC ([9]; 48 H) [µg/mL] | MIC ([11]; 24 h) [µg/mL] | MIC ([11]; 48 h) [µg/mL] | MIC ([12]; 24 H) [µg/mL] | MIC ([12]; 48 H) [µg/mL] | MIC ([13]; 24 H) [µg/mL] | MIC ([13]; 48 H) [µg/mL] | MIC ([15]; A561, 48 h) [µg/mL] | further results
1 | CC(=O)OCC1=C(C(=O)O)N2C(=O)C(NC(=O)/C(=N\OCC(N)=O)c3csc(N)n3)[C@H]2SC1 (stereo partly shown) [Example 11, sodium 7-[2-(2-amino-4-thiazolyl)-2-(aminocarbonylmethoxyimino)-acetamido]-3-acetoxymethyl-ceph-3-eme-4-carboxylate] | 2 | 3 | 5 | 5 | 3 | 5 | 0.05 | 0.05 | 1 | 5 | 5 | 5 | 20 | 0.1 | 0.1 | 2 | 2 | 20 | > 40 | 0.1 | MIC ([1]; ATCC9, 24 h): 0.2 µg/mL; MIC ([1]; ATCC9, 48 h): 0.5 µg/mL; MIC ([3]; 24 h): 0.1 µg/mL; MIC ([3]; 48 h): 0.1 µg/mL; MIC ([5]; ATCC11, 48 H, 37° C.): 0.05 µg/mL; MIC ([6]; EXP.52145, 24 H, 37° C.): 0.05 µg/mL; MIC ([7]; ATCC6, 24 h): 0.5 µg/mL; MIC ([10]; 24 h): 0.5 µg/mL; MIC ([10]; 48 h): 0.5 µg/mL; MIC ([14]; 24 H, 37° C.): 5 µg/mL; MIC ([14]; 48 H, 37° C.): 40 µg/mL; MIC ([15]; A561, 24 h): 0.1 µg/mL; MIC ([16]; 24 h): 0.2 µg/mL; MIC ([16]; 48 h): 0.2 µg/mL; MIC (Enterobacter cloacae 681; 24 H): 2 µg/mL; MIC (Enterobacter cloacae 681; 48 H): 10 µg/mL; MIC ([17]; 24 H): 0.1 µg/mL; MIC ([17]; 48 H): 0.1 µg/mL
2 | CCOC(=O)CO/N=C(\C(=O)NC1C(=O)N2C(C(=O)O)=C(COC(C)=O)CS[C@H]12)c1csc(N)n1 (stereo partly shown) [Example 2, 7-[2-(2-amino-4-thiazolyl)-2-carbethoxymethyloxyimino-acetamido]-3-acetoxymethyl-ceph-3-eme-4-carboxylic acid] | 3 (≈ 5.69 µM) | 5 (≈ 9.48 µM) | 5 (≈ 9.48 µM) | 5 (≈ 9.48 µM) | 3 (≈ 5.69 µM) | 5 (≈ 9.48 µM) | 0.5 (≈ 0.948 µM) | 0.2 (≈ 0.379 µM) | 5 (≈ 9.48 µM) | 3 (≈ 5.69 µM) | 3 (≈ 5.69 µM) | 5 (≈ 9.48 µM) | > 40 | 1 (≈ 1.9 µM) | 1 (≈ 1.9 µM) | 5 (≈ 9.48 µM) | 5 (≈ 9.48 µM) | > 40 | > 40 | 0.1 (≈ 0.19 µM) | MIC ([1]; ATCC9, 24 H, 37° C.): 2 µg/mL (≈ 3.79 µM); MIC ([1]; ATCC9, 48 H, 37° C.): 2 µg/mL (≈ 3.79 µM); MIC ([3]; 24 H, 37° C.): 0.2 µg/mL (≈ 0.379 µM); MIC ([3]; 48 H, 37° C.): 0.2 µg/mL (≈ 0.379 µM); MIC ([5]; ATCC11, 48 h): 1 µg/mL (≈ 1.9 µM); MIC ([6]; EXP.52145, 24 h): 0.1 µg/mL (≈ 0.19 µM); MIC ([7]; ATCC6, 24 H, 37° C.): 0.5 µg/mL (≈ 0.948 µM); MIC ([10]; 24 H, 37° C.): 2 µg/mL (≈ 3.79 µM); MIC ([10]; 48 H, 37° C.): 2 µg/mL (≈ 3.79 µM); MIC ([14]; 24 h): 1 µg/mL (≈ 1.9 µM); MIC ([14]; 48 h): 1 µg/mL (≈ 1.9 µM); MIC ([15]; A561, 24 H, 37° C.): 0.05 µg/mL (≈ 0.0948 µM); MIC ([16]; 48 H, 37° C.): 2 µg/mL (≈ 3.79 µM); MIC ([16]; 24 h): 1 µg/mL (≈ 1.9 µM); MIC (Enterobacter cloacae 681; 24 H): 10 µg/mL (≈ 19 µM); MIC (Enterobacter cloacae 681; 48 H): 10 µg/mL (≈ 19 µM); MIC ([17]; 24 H): 1 µg/mL (≈ 1.9 µM); MIC ([17]; 48 H): 1 µg/mL (≈ 1.9 µM)

Source: patent US4487937A, “2-(2-Substitutedamino-4-thiazolyl)-2-(1-methoxy-isopropoxyimino)-acetic acids” (Roussel Uclaf, priority 1977, dated 1984)
